Data reported in PubChem BioAssay (NCI).
Where “and” joins values, the source holds several entries; their conditions need not be identical. Equal values may be shown once.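 Tested at 5 concentrations; 48 h exposure; 96-well plates; endpoints linearly interpolated, else capped at highest concentration. GI50 = concentration required for 50% inhibition of growth. TGI: concentration producing complete growth inhibition.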

How the values were obtained:
Experiment in all cases: DTP human tumour cell line panel, 48 h; in the data active = GI50 below about 0.43 µM; inactive = the rest
ACHN renal = tested on: ACHN renal
CCRF-CEM leukemia = tested on: CCRF-CEM leukemia
EKVX NSCLC = tested on: EKVX NSCLC
HCC-2998 colon = tested on: HCC-2998 colon
HCT-15 colon = tested on: HCT-15 colon
K-562 leukemia = tested on: K-562 leukemia
MALME-3M melanoma = tested on: MALME-3M melanoma
OVCAR-4 ovarian = tested on: OVCAR-4 ovarian
SF-539 CNS = tested on: SF-539 CNS
SW-620 colon = tested on: SW-620 colon

COc1cc2c(cc1OC)C(=O)/C(=C/c1cccc(OCC(=O)c3ccccc3)c1)C2
63.9 µM: TGI (SF-539 CNS)
> 100 µM: TGI (ACHN renal) | TGI (EKVX NSCLC) | TGI (HCC-2998 colon) | TGI (HCT-15 colon) | TGI (K-562 leukemia) | TGI (MALME-3M melanoma) | TGI (OVCAR-4 ovarian) | TGI (SW-620 colon)
7.31 µM: TGI (CCRF-CEM leukemia)
inactive: GI50 (ACHN renal) 26.7 µM | GI50 (CCRF-CEM leukemia) 2.17 µM | GI50 (EKVX NSCLC) 33.5 µM | GI50 (HCC-2998 colon) 73.1 µM | GI50 (HCT-15 colon) 9.3 µM | GI50 (K-562 leukemia) 3.11 µM | GI50 (MALME-3M melanoma) 25.1 µM | GI50 (OVCAR-4 ovarian) 30.4 µM | GI50 (SF-539 CNS) 16.2 µM | GI50 (SW-620 colon) 38.3 µM

COc1cc([C@H]2c3cc4c(cc3O[C@@]3(O)COC(=O)[C@@H]23)OCO4)cc(OC)c1OC
> 100 µM: TGI (ACHN renal) | TGI (CCRF-CEM leukemia) | TGI (EKVX NSCLC) | TGI (HCC-2998 colon) | TGI (HCT-15 colon) | TGI (K-562 leukemia) | TGI (MALME-3M melanoma) | TGI (OVCAR-4 ovarian) | TGI (SF-539 CNS) | TGI (SW-620 colon)

O=C(O)c1c(-c2cccc3ccccc23)sc(-c2cccc3ccccc23)c1C(=O)O
> 100 µM: TGI (ACHN renal) | TGI (CCRF-CEM leukemia) | TGI (EKVX NSCLC) | TGI (HCC-2998 colon) | TGI (HCT-15 colon) | TGI (K-562 leukemia) | TGI (MALME-3M melanoma) | TGI (SF-539 CNS) | TGI (SW-620 colon)

O=[N+]([O-])c1ccc(C(c2c[nH]c3ccccc23)c2c[nH]c3ccccc23)cc1
29.7 µM: TGI (HCT-15 colon)
37.6 µM: TGI (MALME-3M melanoma)
21.5 µM: TGI (ACHN renal)
30.6 µM: TGI (SF-539 CNS)
48.2 µM: TGI (EKVX NSCLC)
27.9 µM: TGI (SW-620 colon)
1.17 µM: TGI (CCRF-CEM leukemia)
39.3 µM: TGI (HCC-2998 colon)
48 µM: TGI (K-562 leukemia)
28.2 µM: TGI (OVCAR-4 ovarian)

O=C(c1ccccc1)C(C(=O)c1ccccc1)C1(O)C(=O)c2ccccc2C1=O
60.6 µM: TGI (K-562 leukemia)
83 µM: TGI (CCRF-CEM leukemia)
> 100 µM: TGI (ACHN renal) | TGI (EKVX NSCLC) | TGI (HCC-2998 colon) | TGI (HCT-15 colon) | TGI (SF-539 CNS) | TGI (SW-620 colon)
96.6 µM: TGI (MALME-3M melanoma)

O=C(CN1CCN(c2ncccn2)CC1)Nc1ccc(Cl)cc1C(=O)c1ccccc1Cl
> 100 µM: TGI (ACHN renal) | TGI (CCRF-CEM leukemia) | TGI (EKVX NSCLC) | TGI (HCC-2998 colon) | TGI (HCT-15 colon) | TGI (K-562 leukemia) | TGI (MALME-3M melanoma) | TGI (OVCAR-4 ovarian) | TGI (SF-539 CNS) | TGI (SW-620 colon)
inactive: GI50 (ACHN renal) > 100 µM | GI50 (CCRF-CEM leukemia) 83.5 µM | GI50 (EKVX NSCLC) > 100 µM | GI50 (HCC-2998 colon) > 100 µM | GI50 (HCT-15 colon) > 100 µM | GI50 (K-562 leukemia) 32 µM | GI50 (MALME-3M melanoma) > 100 µM | GI50 (OVCAR-4 ovarian) 43.9 µM | GI50 (SF-539 CNS) > 100 µM | GI50 (SW-620 colon) > 100 µM

CN1CC[C@@H](c2c(O)cc(O)c3c(=O)cc(-c4ccccc4Cl)oc23)[C@@H](O)C1
0.141 µM and 0.057 µM and 0.148 µM: TGI (SF-539 CNS)
0.312 µM and 0.162 µM: TGI (HCC-2998 colon)
23.2 µM: TGI (SW-620 colon)
0.435 µM and 0.947 µM: TGI (EKVX NSCLC)
0.68 µM and 3.61 µM: TGI (OVCAR-4 ovarian)
0.439 µM and 0.465 µM: TGI (MALME-3M melanoma)
active: GI50 (ACHN renal) 0.0346 µM | GI50 (CCRF-CEM leukemia) 0.038 µM and 0.0412 µM | GI50 (EKVX NSCLC) 0.141 µM | GI50 (HCC-2998 colon) 0.137 µM and 0.0417 µM | GI50 (HCT-15 colon) 0.0476 µM | GI50 (K-562 leukemia) 0.212 µM and 0.145 µM | GI50 (MALME-3M melanoma) 0.166 µM and 0.144 µM | GI50 (OVCAR-4 ovarian) 0.17 µM | GI50 (SF-539 CNS) 0.0688 µM and 0.0197 µM | GI50 (SW-620 colon) 0.0594 µM and 0.0653 µM
15.6 µM: TGI (ACHN renal)

COc1cc(C2C=C(c3cccc(NC(C)=O)c3)Nc3ncnn32)cc(OC)c1OC (stereo not given)
2 µM: TGI (SF-539 CNS)
> 44.1 µM: TGI (K-562 leukemia)
inactive: GI50 (ACHN renal) 3.47 µM | GI50 (CCRF-CEM leukemia) 0.72 µM | GI50 (EKVX NSCLC) 0.737 µM | GI50 (HCT-15 colon) 2.02 µM | GI50 (K-562 leukemia) 0.447 µM | GI50 (OVCAR-4 ovarian) 5.8 µM
> 100 µM: TGI (ACHN renal) | TGI (EKVX NSCLC) | TGI (HCT-15 colon) | TGI (MALME-3M melanoma) | TGI (OVCAR-4 ovarian) | TGI (SW-620 colon)
0.489 µM: TGI (HCC-2998 colon)
active: GI50 (HCC-2998 colon) 0.0566 µM | GI50 (MALME-3M melanoma) 0.389 µM | GI50 (SF-539 CNS) 0.367 µM | GI50 (SW-620 colon) 0.313 µM
4.16 µM: TGI (CCRF-CEM leukemia)
